# “And” between values parts separate entries of the source, which are not always exact repeats. Identical values can stand only once.
# Legend:
# soluble MMP-9 = details: cited from earlier work
# [1] = system: demineralized dentin collagen; details: cited from earlier work
# MMP = details: cited from earlier work
# [2] = system: total endogenous MMP activity of dentin (matrix-bound MMPs); type: biochemical, human; details: 1.0% w/v aqueous BAC applied for 60 s; relative to untreated control with 0% inhibition; mean (SD), n = 10
# MMP-8 = details: cited from earlier work
# MMP-9 = details: cited from earlier work
# MMP-2 = details: cited from earlier work
compound,measurement,setting,value
"C=C(C)C(=O)OCCCCCCCCCCCC[n+]1ccccc1.[Br-] [MDPB, 12-methacryloyloxydodecylpyridinium bromide]",Inhibition of soluble MMP-9,soluble MMP-9,effectively inhibited soluble MMP-9 as or more effectively as Galardin
same,Inhibition of degradation of demineralized dentin collagen,[1],almost completely inhibited
Benzalkonium chloride [BAC],MMP inhibition,MMP; 1.0% BAC,55–66%
same,MMP inhibition relative to 1.0% BAC,MMP; 2.0% BAC,did not yield additional MMP inhibition
same,% MMP inhibition (total MMP activity),[2],54% and 54.2 (9.0) ^C %
"[H]/N=C(\N/C(=N/[H])NCCCCCCNC(=N)NC(=N)Nc1ccc(Cl)cc1)Nc1ccc(Cl)cc1 [CHX, Chlorhexidine]",Inhibition of MMP-8,MMP-8,potent inhibitor
same,Inhibition of MMP-9,MMP-9,potent inhibitor
same,Inhibition of MMP-2,MMP-2,potent inhibitor

# Source: paper PMC4356641 (European journal of oral sciences, 2015)
